From ChEMBL document CHEMBL5728520, “Carboxamide-pyrimidine derivatives as SHP2 antagonists” (2021)

Target: T1, Tyrosine-protein phosphatase non-receptor type 11 (Homo sapiens, UniProt Q06124)
T1 sequence (Q06124 whole entry): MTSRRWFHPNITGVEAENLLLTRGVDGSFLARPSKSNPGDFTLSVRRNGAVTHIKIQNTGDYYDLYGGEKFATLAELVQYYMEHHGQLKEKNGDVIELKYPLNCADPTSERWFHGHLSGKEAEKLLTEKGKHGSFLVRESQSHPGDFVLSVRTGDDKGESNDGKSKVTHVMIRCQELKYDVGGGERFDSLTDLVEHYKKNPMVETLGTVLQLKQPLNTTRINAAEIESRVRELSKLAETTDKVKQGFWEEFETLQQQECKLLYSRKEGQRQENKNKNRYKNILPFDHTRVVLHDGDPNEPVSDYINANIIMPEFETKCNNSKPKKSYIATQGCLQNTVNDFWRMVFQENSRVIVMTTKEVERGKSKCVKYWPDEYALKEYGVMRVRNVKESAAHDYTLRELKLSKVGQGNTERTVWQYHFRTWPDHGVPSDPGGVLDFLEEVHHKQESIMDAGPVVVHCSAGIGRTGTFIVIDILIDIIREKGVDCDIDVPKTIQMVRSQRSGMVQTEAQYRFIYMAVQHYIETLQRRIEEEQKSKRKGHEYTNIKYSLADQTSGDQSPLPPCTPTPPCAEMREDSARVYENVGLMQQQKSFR
Experiment: Biochemical Assay: The inhibition of SHP2 by compounds of the invention was monitored using the surrogate substrate DiFMUP after protein activation by a peptide bearing two appropriately spaced phosphotyrosine. Full length SHP2 protein (Recombinant HumanSHP-2, E. coli derived Ser2Arg593, N-terminal 6His tag from R&D systems; […]) was incubated with activating peptide, IRSI_2pY (New England Peptide, 140 nM) and DiFMUP (molecular probes, 80 uM) at RT in buffer (HEPES pH 7.2 60 mM, DDT 5 mM, KCl 75 mM, NaCl 75 mM, EDTA 1 mM, Tween 20 0.05%) in presence of compound (10 concentrations range, top concentration 50 Î¼M) for 60 min. The generation of the DiFMU product by activated SHP2 was monitored through Fluorescence measurement with a PerkinElmer Envision reader.

IC50 [µM] | Compound
0.06 | CC1(N)CCN(c2nc(Cl)c(-c3cccc(Cl)c3Cl)c(C(N)=O)n2)CC1
3.7 | CC1(N)CCN(c2ncc(-c3cccc(Cl)c3Cl)c(C(N)=O)n2)CC1
> 10 | C[C@]12CCCCC[C@](C)(CN(c3nc(N)c(-c4cccc(Cl)c4Cl)c(C(N)=O)n3)C1)[C@H]2N
